Series [1] deals with cornea of a living rabbit. Nature of the series: Living corneal TER measurement requiring no anterior chamber centesis (conjunctival sac method). Format: in vivo. The following applies: 0.02% BAC. The procedure: Evaluation of Corneal Disorder Due to BAC by Living Corneal TER Measurement Requiring No Anterior Chamber Centesis (Referred to as Conjunctival Sac Method) (FIG. 1)
Silver-silver chloride electrode having a rod shape was placed on a cornea and into a conjunctival sac of a living rabbit, and a 0.02% BAC was administered thereto. A change in the corneal TER due to exposure to BAC was measured by a voltage-electric resistance value measuring device. A rubber ring (6 mm in the inner diameter) was fixed onto the cornea around the periphery of the electrode by using a bioadhesive (Aron alpha A from Sankyo Co., Ltd.) for insulation, so that an electric current is surely passed through the epithelium of the cornea. An AC current of ±20 μA was flowed, and a change curve of TER, a reduction of TER and a TER value after a lapse of 60 seconds from the exposure to 0.02% BAC, were compared with those from the conventional measuring method in which the anterior chamber centesis was carried out (comparative example 1). The TER value was calculated by subtracting an electric resistance value between the anterior chamber and the conjunctival sac obtained in a preliminary experiment from the measured value.

Series [2] relates to cornea of a living rabbit. In words: Corneal TER measurement with the integrated TER measuring device of FIG. 6. Format: in vivo, Japanese white rabbit. The following applies: 0.02% BAC dropped onto the eye, one minute after the administration, device of FIG. 6, n=3. From the text:
A silver electrode and a silver-silver chloride electrode having a diameter of 1 mm were placed on a round cover glass having a diameter of 12 mm. PDMS having a circular cylinder shape with 10 mm in diameter and 6 mm in inner diameter and having a curvature radius of the corneal contact surface of 7.9 mm was secured onto the cover glass by using an adhesive. An Eppendorf tube was attached to a rear side (on the side opposite to the corneal contact surface (cover glass side)) for mount onto a slit-lamp. The inner space of the PDMS was filled with an atelocollagen gel and its curvature radius was adjusted to 7.9 mm.
A silver electrode and a silver chloride electrode having a diameter of 1 mm were placed on a PET sheet of 0.005×0.5×1 cm, at position of 1 mm from the distal end of the sheet on the eyeball side. The PET sheet, the silver electrode and the silver chloride electrode were thinly coated with a collagen gel. […]
By using thus prepared TER measuring device, a change in the corneal TER of a living rabbit was measured. […]
A 0.02% BAC was dropped onto the eye of the rabbit, and the resulting TER value was compared with the TER value before the administration. […] Prior to the BAC administration (indicated as “normal cornea” in FIG. 7) as well as after the BAC administration, within one second after the device was contacted with the cornea, a stable TER value could be measured.

A further series deals with cornea of a rabbit. In words: Living corneal TER measurement using anterior chamber centesis (anterior chamber centesis method). Format: in vivo. The following applies: 0.02% BAC. The procedure:
Evaluation of Corneal Disorder Due to BAC by Living Corneal TER Measurement Using Anterior Chamber Centesis (Referred to as “Anterior Chamber Centesis Method”)
In accordance with the method described in non-Patent Document 4 supra, electrodes were placed on a cornea and into an anterior chamber of a rabbit, and after administration of 0.02% BAC, a corneal TER was measured.

benzalkonium chloride [BAC]: the results for the TER value (in series [1] (after a lapse of 60 seconds); in the series with cornea of a rabbit (after a lapse of 60 seconds)) were 175±14 Ωcm^2 and 138±10 Ωcm^2, respectively. The “TER (TER before the administration of the BAC set to 100%)” value came to 13.5±2.1% in series [1] (after a lapse of 60 seconds, p<0.01); 35.1±6.8% in series [1] (ten seconds after the administration); 19.7±5.9% with cornea of a rabbit (60 seconds after the administration). Moreover, the “Change of TER compared with the TER value before the administration” value in series [2] is given as “significantly reduced”.

The record behind these values is patent US8478395B2, “Method of measuring electrical resistance value of corneal trans-epithelium” (Nagasaki University, priority 2008, dated 2013).
